Results reported in ChEMBL document CHEMBL5233262, “Anti-inflammatory activity of naturally occuring diarylheptanoids - A review” (Bioorg Med Chem, 2021).
In brackets after ≈: the same amount, converted by molar mass. Blank lines part the entries; values can stand above or below the molecule they belong to.

Assays:
RAW264.7 [1] = assay: Antiinflammatory activity in mouse RAW264.7 cells assessed as inhibition of IFN-gamma and LPS-induced NO production incubated for 24 hrs by Griess assay; assay type: functional, cell-based; details: RAW264.7, 24 h
RAW264.7 [2] = assay: Antiinflammatory activity against mouse RAW264.7 cells assessed as inhibition of IFN-gamma and LPS-induced COX2 production preincubated for 2 hrs followed by IFN-gamma and LPS stimulation and measured after 16 hrs by spectrophotometric analysis; assay type: functional, cell-based
J774.1 [3] = assay: Cytotoxicity in mouse J774.1 cells assessed as reduction in cell viability at 100 microg/ml; assay type: toxicity, cell-based; details: at 100 µg/mL
J774.1 [4] = assay: Antiinflammatory activity in mouse J774.1 cells assessed as inhibition of LPS-induced NO production incubated for 48 hrs by Griess reagent based analysis; assay type: functional, cell-based
J774.1 [5] = assay: Antiinflammatory activity in mouse J774.1 cells assessed as inhibition of LPS-induced NO production at 100 microg/ml; assay type: functional
RAW264.7 [6] = assay: Antiinflammatory activity in mouse RAW264.7 cells assessed as inhibition of LPS-induced NO production for 24 hrs by Griess assay; assay type: functional, cell-based; details: RAW264.7, 24 h
RAW264.7 [7] = assay: Antiinflammatory activity in mouse RAW264.7 cells assessed as inhibition of LPS-induced NO production preincubated for 0.5 hrs followed by LPS stimulation and measured after 24 hrs by Griess reagent based analysis; assay type: functional, cell-based
RAW264.7 [8] = assay: Antiinflammatory activity in mouse RAW264.7 cells assessed as inhibition of LPS-induced NO production preincubated for 1 hrs followed by LPS stimulation and measured after 24 hrs by Griess method; assay type: functional, cell-based
RAW264.7 [9] = assay: Antiinflammatory activity in mouse RAW264.7 cells assessed as inhibition of LPS-induced TNFalpha level preincubated for 1 hrs followed by LPS stimulation and measured after 24 hrs by ELISA; assay type: functional, cell-based
[10] = Antiinflammatory activity in mouse N11 cells assessed as inhibition of LPS-induced TNFalpha level preincubated for 1 hrs followed by LPS stimulation and measured after 24 hrs by ELISA; assay type: functional, cell-based
[11] = Antiinflammatory activity in mouse N11 cells assessed as inhibition of LPS-induced NO production preincubated for 1 hrs followed by LPS stimulation and measured after 24 hrs by Griess method; assay type: functional, cell-based
RAW264.7 [12] = assay: Antiinflammatory activity in mouse RAW264.7 cells assessed as inhibition of LPS-induced NO production preincubated for 1 hrs followed by LPS stimulation and measured after 24 hrs by Griess reagent based spectrophotometrical method; assay type: functional, cell-based
RAW264.7 [13] = assay: Antiinflammatory activity in mouse RAW264.7 cells assessed as inhibition of LPS-induced NO production incubated for 18 hrs by Griess method; assay type: functional, cell-based; details: RAW264.7, 18 h
[14] = Inhibition of COX in bovine seminal vesicle assessed as reduction in PGE2 production using arachidonic acid as substrate; assay type: tissue-based, Bos taurus
[15] = Antioxidant activity assessed as […] radical scavenging activity at 50 uM; assay type: functional
Rattus norvegicus = assay: Antiinflammatory activity in rat model of carrageenan-induced paw edema assessed as reduction in paw thickness at 10 mg/kg,ip and measured after 4 hrs; assay type: functional; set-up: scale not given: the % may be the effect or the level left
[16] = Antioxidant activity assessed as ABTS radical scavenging activity measured after 6 mins; assay type: functional
[17] = Antioxidant activity assessed as DPPH radical scavenging activity incubated for 30 mins by spectrophotometric analysis; assay type: functional
Mus musculus = assay: Antiinflammatory activity in ICR mouse model of TPA-induced ear edema assessed as inhibition of ear inflammation at 1 mg,TOP for 30 mins followed by TPA addition and measured after 6 hrs; assay type: functional; details: time 390 min, 6.5 h
RAW264.7 [18] = assay: Antiinflammatory activity in mouse RAW264.7 cells assessed as inhibition of LPS-induced NO production at 30 uM preincubated for 0.5 hrs followed by LPS stimulation and measured after 24 hrs by Griess reagent based analysis; assay type: functional; details: time 24.5 hrs

SMILES: OC[C@@]1(O)CO[C@@H](OC[C@H]2O[C@@H](O[C@H](CCCCc3ccc(O)c(O)c3)CCc3ccc(O)c(O)c3)[C@H](O)[C@@H](O)[C@@H]2O)[C@@H]1O
IC50 (RAW264.7 [1]): 49.4 µg/mL (≈ 78.8 µM) | IC50 (RAW264.7 [2]): 34.2 µg/mL (≈ 54.6 µM)

SMILES: COc1cc(O)c([C@H](/C=C/C[C@H](CCc2ccc(O)cc2)OO)c2ccc(O)cc2)c(O)c1C(=O)/C=C/c1ccc(O)cc1
IC50 (J774.1 [4]; Mus musculus, J774.1, 48 h): 49 µM

SMILES: COc1cc(O)c([C@H](/C=C/C[C@@H](O)CCc2ccc(O)cc2)c2ccc(O)cc2)c(O)c1C(=O)[C@@H]1[C@H](/C=C/c2ccc(O)cc2)C[C@H](CCc2ccc(O)cc2)O[C@H]1c1ccc(O)cc1
IC50 (J774.1 [4]; Mus musculus, J774.1, 48 h): 36 µM

SMILES: N=C(NCCC[C@H](N)C(=O)O)N[N+](=O)[O-] [NITROARGININE]
IC50 (RAW264.7 [12]): 39.5 µM

SMILES: COc1c2cc(c(O[C@@H]3O[C@H](CO)[C@@H](O)[C@H](O)[C@H]3O)c1OC)CCCC[C@H](O)CCc1ccc(O)c-2c1
Activity [15]: 41% | Activity (Rattus norvegicus): 47.1%

SMILES: COc1cc(O)c([C@@H](/C=C/C[C@@H](O)CCc2ccc(O)cc2)c2ccc(O)cc2)c2oc(-c3ccc(O)cc3)cc(=O)c12 (stereo in doubt; 113)
IC50 (J774.1 [4]; j774.1): 83 µM

SMILES: OC[C@@]1(O)CO[C@@H](OC[C@H]2O[C@@H](O[C@@H]3CCCCc4ccc(O)c(c4)Oc4ccc(cc4)CC3)[C@H](O)[C@@H](O)[C@@H]2O)[C@@H]1O
ID50 (Mus musculus): 0.81 mg

SMILES: COc1c2cc(c(O[C@@H]3O[C@H](CO)[C@@H](O)[C@H](O)[C@H]3O)c1O)CCCCC(=O)CCc1ccc(OC(C)=O)c-2c1
Activity [15]: 41% | Activity (Rattus norvegicus): 46.3%

SMILES: O=C(CCc1ccc(O)c(O)c1)C[C@H](CCc1ccc(O)cc1)O[C@@H]1OC[C@@H](O)[C@H](O)[C@H]1O
IC50 (RAW264.7 [7]): 8.1 µM

SMILES: OC[C@H]1O[C@@H](O[C@H](CCCCc2ccc(O)cc2)CCc2ccc(O)c(O)c2)[C@H](O)[C@@H](O)[C@@H]1O
inhibition at 30 µM (RAW264.7 [18]): 37%

SMILES: COc1cc(O)c([C@H](/C=C/C[C@@H](O)CCc2ccc(O)cc2)c2ccc(O)cc2)c2oc(-c3ccc(O)cc3)cc(=O)c12 (stereo in doubt; 111)
IC50 (J774.1 [4]; j774.1): 95 µM

SMILES: OC[C@H]1O[C@@H](O[C@H](CCCCc2ccc(O)c(O)c2)CCc2ccc(O)cc2)[C@H](O)[C@@H](O)[C@@H]1O
inhibition at 30 µM (RAW264.7 [18]): 11%

SMILES: Oc1ccc(CC[C@H](O)C[C@H](O)CCc2ccc(O)c(O)c2)cc1
IC50 (RAW264.7 [6]): 27 µM

Second part, led by results:

IC50 (J774.1 [4]; Mus musculus, J774.1, 48 h): 84 µM
SMILES: COc1cc(O)c([C@H](/C=C/C[C@@H](O)CCc2ccc(O)cc2)c2ccc(O)cc2)c(O)c1C(=O)/C=C/c1ccc(O)cc1
Activity (J774.1 [3]): 85% | inhibition at 100 µg/mL (J774.1 [5]): 90%

IC50 (RAW264.7 [6]): > 100 µM
SMILES: COc1cc([C@@H]2O[C@H]([C@@H](O)Cc3ccc(O)cc3)C[C@@H](O)[C@@H]2O)ccc1O

IC50 (RAW264.7 [7]): 22.1 µM
SMILES: Oc1ccc(CC[C@H](O)CCCCc2ccc(O)c(O)c2)cc1

IC50 (RAW264.7 [8]): 47 µM | IC50 (RAW264.7 [9]): 29.6 µM | IC50 [10]: 29.6 µM | IC50 [11]: 63.2 µM
SMILES: COc1ccc(C/C=C/CCCCc2ccc(O)cc2)cc1

IC50 (RAW264.7 [7]): 10.5 µM
SMILES: O=C(CCc1ccc(O)c(O)c1)C[C@H](CCc1ccc(O)c(O)c1)O[C@H]1OC[C@H](O)[C@@H](O)[C@@H]1OC(=O)/C=C/c1ccccc1

IC50 (RAW264.7 [8]): 25.1 µM | IC50 (RAW264.7 [9]): 15.9 µM | IC50 [10]: 23.3 µM | IC50 [11]: 41.3 µM
SMILES: COc1ccc(C/C=C/CCCCc2ccc(O)c(O)c2)cc1

IC50 (RAW264.7 [6]): 46.7 µM
SMILES: COc1cc(C(O)C(O)C(O)CC(O)C(O)Cc2ccc(O)cc2)ccc1O (centres undefined)

IC50 (RAW264.7 [13]): 13.2 µM
SMILES: O=C(CCCCc1ccc(O)cc1)CCc1ccc(O)c(O)c1

IC50 (RAW264.7 [6]): 27.9 µM
SMILES: Oc1ccc(CC[C@@H]2C[C@@H](O)C[C@H](c3ccc(O)c(O)c3)O2)cc1

IC50 [14]: 11.8 µM
SMILES: O=C1CCN(c2ccccc2)N1 [PHENIDONE]

IC50 [16]: 12 µM | IC50 (RAW264.7 [12]): 13 µM
SMILES: COc1cc2cc(c1O)-c1cc(ccc1O)CCC(=O)CCCC2 [MYRICANANIN C]

IC50 (RAW264.7 [8]): 47 µM | IC50 (RAW264.7 [9]): 9.9 µM | IC50 [10]: 29.6 µM | IC50 [11]: 44.2 µM
SMILES: COc1ccc(C/C=C/CCCCc2cccc(O)c2)cc1

IC50 [16]: 73.7 µM | IC50 [17]: > 250 µM | IC50 (RAW264.7 [12]): 46.9 µM
SMILES: COc1c2cc(c(OC)c1OC)-c1cc(ccc1O)CC(O)C(=O)CCCC2 (centres undefined)

IC50 (RAW264.7 [6]): 17.3 µM
SMILES: Oc1ccc(CC[C@H]2C[C@@H](O)C[C@@H](c3ccc(O)c(O)c3)O2)cc1
